The results in this text go back to patent publication US20090130064A1, “DIFFERENTIATION OF STEM CELLS AND STABILIZATION OF PHENOTYPICAL PROPERTIES OF PRIMARY CELLS” (priority 2004, published 2009).

The test system of one data set is Cx26. Briefly: Cx26 expression and localization (immunoblotting, immunocytochemistry) in rat hepatocytes. The class given is cell-based. The settings on record: 1 μM TSA. Here is the method: (§1) In all conditions, the hepatocytes were cultivated as a monolayer configuration, and samples were taken at days 1, 4 and 7 (D1, D4, D7) of the cultivation time.
(§2) Proteins (25 or 50 μg) were resolved on SDS-PAGE (7.5, 10 or 12%) and blotted afterwards onto nitrocellulose membranes. After blocking with non-fatty milk, membranes were incubated with appropriate concentrations of primary and secondary antibodies (HRP labeled). Proteins were detected using the ECL detection system (Amersham Biosciences). Primary antibodies: Cx26 (Zymed, 1/250), Cx32 (Sigma, 1/500), Cx43 (Zymed, 1/100).
(§3) Hepatocytes were fixed with cold ethanol, peremeabilised with Triton X-100 (Sigma) and blocked with non-fatty milk. Following incubation with appropriate concentrations of primary and secondary antibodies (FITC or TRITC labeled), samples were mounted with DAPI-containing Vectashield (Vector Laboratories). Detection was performed by fluorescence microscopy (Leica DMR/XA).
A general note: In western blotting, separated proteins are transferred to a membrane and probed.

Data set [1] in a line: Biotransformation by rat liver microsomes. The class given is in vitro ADME. The conditions noted are these: 140 μM TSA, 150 min. As to the method: Human liver specimens (n=3) were acquired from organ donors at the Academic Hospital of the VUB in accordance with the regulations of the local Medical Ethical Committee and immediately frozen in liquid nitrogen. While human liver microsomes were prepared from frozen liver tissue, rat livers (n=3) were freshly isolated for immediate microsome preparation. Microsomal 7-ethoxyresorufin-O-deethylase (EROD) [31]was used as a marker enzyme to evaluate the microsomal biotransformation activity before and after storage. Incubations were carried out in a 100 mM sodium potassium phosphate buffer pH 7.4 in the presence of a NADPH-generating system (0.5 mM NADP^+, 10 mM glucose 6-phosphate, 2 U/ml glucose 6-phosphate dehydrogenase and 0.6 mM MgCl2). Microsomes (0.0-2.0 mg microsomal protein/ml) were incubated with 140 μM substrate at 37° C. for 150 min. Boiled microsomes ([…]) served as a control. Biotransformation reactions were initiated by addition of substrate and, at selected time intervals, terminated by dilution with ice-cold acetonitrile (1:2.5).
After centrifugation (2000 g, 45 min, 4° C.) of the diluted microsomal samples, the clear supernatant was injected onto a HPLC column. Samples from incubations with hepatocytes were thawed on ice and centrifugated (120 g, 2 min). […]
For orientation: Liver microsomes are a subcellular fraction often used to study metabolism.

Another data set deals with Cx32. Briefly: Cx32 expression (immunoblotting) in rat hepatocytes. Format: cell-based. The conditions noted are these: 1 μM TSA. As to the method: as §1, §2, §3
A further data set deals with GSTM. Briefly: GSTM iso-enzyme activity in cultured rat hepatocytes. The class given is cell-based. The conditions noted are these: TSA started at 4 h; day 4 and 7. An excerpt:
Hepatocytes were isolated from male Sprague-Dawley rats by a two-step collagenase perfusion as described (De Smet et al. In ‘Methods in Molecular Biology, Vol. 107: Cytochrome P450 Protocols’, Philips IR and Shephard E A, eds., p.p 295-301, Humana Press, Totowa, 1998). Hepatocytes were cultivated in monolayer cultures with Willam's E Medium (WE) for 7 days. […] The maintenance of differentiation characteristics was studied after 2, 4, and 7 days (D2, D4, D7) of culture.
In order to investigate Phase II biotransformation, total cytosolic glutathione S-transferase (GST) activity and activities of individual GSTA, GSTP, and GSTM iso-enzymes were measured using standard techniques known in the art. (i.e., measuring conjugation of reduced glutathione with 1-chloro-2,4-dinitrobenzene for total GST; measuring conjugation of reduced glutathione with 7-chloro-4-nitrobenzo-2-oxa-1,3-diazole for GSTA activity; measuring conjugation of reduced glutathione with ethacrynic acid for GSTP activity; and measuring conjugation of reduced glutathione with 1,2-dichloro-4-nitrobenzene for GSTM activity).

Regarding `CC(C=CC(=O)NO)=CC(C)C(=O)c1ccc(N(C)C)cc1` (centres unmarked) [TSA], in the data set on Cx26, the “expression of Cx26” value is “decreases the expression” and the “localization of Cx26” value was “perinuclear localization”. Moreover, in data set [1], the “biotransformation in microsome suspensions” value is “slow and incomplete biotransformation”. Further, in the data set on Cx32, the “expression of Cx32” value is recorded as “induces the expressions”. For the same compound, the “activity of GSTM iso-enzyme” value with GSTM was “stimulated”.
